# Columns and labels:
# Type in all cases: functional
# [1] = test system: Mycobacterium tuberculosis; experiment: Antimycobacterial activity against Mycobacterium tuberculosis NTB1 harboring DprE1 G387S mutant assessed as inhibition of bacterial growth measured after 21 days by microbroth dilution method; conditions: time 21 day
# [2] = test system: Mycobacterium tuberculosis; experiment: Antimycobacterial activity against Mycobacterium tuberculosis DR1 harboring mmpL3 V681I mutant assessed as inhibition of bacterial growth measured after 21 days by microbroth dilution method; conditions: time 21 day
# [3] = test system: Mycobacterium tuberculosis; experiment: Antimycobacterial activity against Mycobacterium tuberculosis 88.7 harboring pyrG V186G mutant assessed as inhibition of bacterial growth measured after 21 days by microbroth dilution method; conditions: time 21 day
# [4] = test system: Mycobacterium tuberculosis; experiment: Antimycobacterial activity against Mycobacterium tuberculosis 53.3 harboring Rv2466c W28S mutant assessed as inhibition of bacterial growth measured after 21 days by microbroth dilution method; conditions: time 21 day
# [5] = test system: Mycobacterium tuberculosis; experiment: Antimycobacterial activity against Mycobacterium tuberculosis Ty1 harboring Rv3405c C190T mutant assessed as inhibition of bacterial growth measured after 21 days by microbroth dilution method; conditions: time 21 day
# [6] = test system: Mycobacterium tuberculosis; experiment: Antimycobacterial activity against Mycobacterium tuberculosis 81.10 harboring EthA del (1109 to 37 residues) mutant assessed as inhibition of bacterial growth measured after 21 days by microbroth dilution method; conditions: time 21 day
# [7] = test system: Mycobacterium tuberculosis; experiment: Antimycobacterial activity against streptomycin, isoniazid, rifampicin, ethambutol, pyrazinamide, ethionamide and capreomycin resistant Mycobacterium tuberculosis IC2 assessed as inhibition of bacterial growth measured after 21 days by microbroth dilution method; conditions: IC2, 504 h, time 21 day
SMILES,MIC [1],MIC [2],MIC [3],MIC [4],MIC [5],MIC [6],MIC [7]
Clc1ccc(CN2CCC(C3c4ccccc4-c4ccccc43)C2)cc1 (centres undefined),0.5 µg/mL,0.5 µg/mL,0.5 µg/mL,0.5 µg/mL,0.5 µg/mL,0.5 µg/mL,0.5 µg/mL
NNC(=O)c1ccncc1 [ISONIAZID],0.025 µg/mL,0.025 µg/mL,0.025 µg/mL,0.025 µg/mL,0.025 µg/mL,0.025 µg/mL,> 0.2 µg/mL
